Results reported in US20150174202A1, “Methods and Compositions for Modulating Beta Cell Proliferation” (The Board of Trustees of the Leland Stanford Junior …, priority 2011, published 2015).
“Also recorded” adds a separate entry of the source.

Tests used:
[1] = system: mouse islet β-cells; experiment: In vitro mouse islet β-cell proliferation (BrdU incorporation); format: cell-based; conditions: juvenile (3 week-old) mouse islets, PDGF-AA 50 ng/ml, 2 days
Description: Mouse pancreatic islets were purified as described in Chen et al. (2009) Genes Dev. 23, 975-985 and used immediately for assays described in the text. To study Ezh2 induction in cultured islets exposed to mitogens, freshly isolated islets from 2-3-week old, and 7-12-month old C57BL/6 mice were recovered and equilibrated overnight at 37° C., 5% CO2 in RPMI-1640 medium supplemented with 0.5% fetal bovine serum (FBS), 0.2% bovine albumin (BSA) and 2% penicillin/streptomycin. Afterwards, islets were distributed into microplates or dishes, and treated with recombinant human PDGF-AA, prolactin or insulin (Sigma), with or without addition of pharmacological inhibitors, including Sunitinib (Selleck), […]0126 (Sigma), LY294002 (Sigma) or U-73122 (Sigma) at the indicated concentrations. Two days later, islets were harvested for RNA or protein extraction for real-time RTPCR or western blot analyses. To detect phosphorylation of Pdgfr-α by western blot, islets were exposed to PDGF-AA (with or without indicated pharmacological inhibitors) for 90 min before islet harvesting and protein extraction. To detect in vitro islet β-cell proliferation stimulated by PDGF-AA, a final concentration of 50 μM BrdU was introduced into each culture dish 24 h before harvest, followed by standard histological processing. Immunostaining of BrdU and insulin was performed on processed islets, and β-cell proliferation rate was determined by quantifying percentage of insulin+ cells with BrdU+. […] For measuring pancreatic β-cell mass or BrdU by morphometry, three to six mice for each group were analysed. At least five sections separated by more than 300 μm (pancreases) or 50 μm (cultured islets) were immunostained and assessed for each sample. Images were analysed with an ImagePro program by observers blinded to genotype, and pancreatic β-cell mass and percentage of BrdU+β-cells were calculated as described in Chen et al. Polycomb protein Ezh2 regulates pancreatic 6-cell Ink4a/Arf expression and regeneration in diabetes mellitus. […]

[2] = system: human EZH2 locus; experiment: EZH2 locus ChIP analysis with anti-E2F1 antibody in human juvenile islets; format: cell-based; conditions: juvenile human islets exposed to PDGF-AA
Description: ChIPs were performed using a chromatin immunoprecipitation kit from Millipore. Briefly, freshly isolated mouse pancreatic islets or cultured human islets after the indicated treatments were pooled, and fixed with 2% formaldehyde for cross-linking for 20 min at room temperature (25° C.). After washing, islets were dissolved in SDS lysis buffer containing a proteinase inhibitor cocktail followed by sonication to shear the chromatin. Precleared chromatin from 150 to 300 islets was used for each ChIP sample with incubation of 1 to 5 μg of the appropriate antibodies at 4° C. overnight. The antibodies used in the ChIP assays included mouse anti-E2F1 (Millipore), rabbit anti-E2F4 (Santa Cruz Biotechnologies), rabbit or mouse polyclonal IgG (Millipore). […] After measurement of DNA concentration by PicoGreen DNA assay (Invitrogen), equivalent amounts of chromatin DNA from every sample was quantified by real-time qPCR in ABI Prism 7300 detection system (Applied Biosystems). […] Afterwards, human islets were processed in a similar way as in mouse islet studies for immunostaining of insulin, glucagon, PDX1 and BrdU. β-Cell proliferation rate was determined by quantifying percentage of insulin+ cells with BrdU+. More than 50 islets per group were counted for determining cultured human islet β-cell proliferation rate.

[3] = system: INSULIN+ cells in human islet grafts; experiment: Human β-cell replication in islets transplanted into NOD-scid mice with PDGF-AA infusion; format: in vivo
Excerpt: Exposure of islets from young human donors to purified PDGF-AA stimulates ERK-dependent signaling pathways culminating in enhanced β-cell proliferation. However, these studies have not yet shown if PDGF-AA activation is sufficient to drive regeneration of functional β-cell mass in vivo. To assess this question, equivalent numbers of size-matched islets from young (ages 1-10 years) and control adult donors (age >20 years) were transplanted into NOD-scid mice. […] PDGF-AA infusion stimulated β-cell expansion in human islet grafts. A 200% increase of INSULIN^+ cell BrdU incorporation in grafts from young human donors (n=3 independent juvenile donors, three week PDGF-AA infusion; FIG. 26B-C). By contrast, we observed no increase of BrdU incorporation by INSULIN^+ cells in adult islet grafts (n=2), as expected based on our prior observation that adult β-cells no longer express Pdgf receptor α or Pdgf receptor β. Promoting the expression of Pdgf receptor on adult islet β-cells, e.g. by promoting Wnt signaling and/or preventing DNA methylatransferase activity, will render these adult islet β-cells sensitive to PGF-AA infusion.

[4] = Serum PDGF-AA by ELISA in NOD-scid mice with osmotic pump; format: in vivo, mouse; conditions: control NOD-scid mice, subcutaneous osmotic pump primed with 4 μg PDGF-AA
Excerpt: Exposure of islets from young human donors to purified PDGF-AA stimulates ERK-dependent signaling pathways culminating in enhanced β-cell proliferation. However, these studies have not yet shown if PDGF-AA activation is sufficient to drive regeneration of functional β-cell mass in vivo. To assess this question, equivalent numbers of size-matched islets from young (ages 1-10 years) and control adult donors (age >20 years) were transplanted into NOD-scid mice.

[5] = grafts from young human donors, three week PDGF-AA infusion

For “PDGF-AA: recombinant human PDGF-AA, a homodimer of PDGF alpha polypeptides”, the “β-cell proliferation assessed by BrdU incorporation” value [1] was “increased β-cell proliferation in juvenile islets; also recorded: induces”, the “association of E2F1 with the human EZH2 locus (ChIP)” value [2] was “stimulated association of E2F1” and the “BrdU incorporation by INSULIN+ cells” value ([3]; adult human islet grafts, PDGF-AA infusion) was “no increase”. The “INSULIN+ cell BrdU incorporation (in words)” value [3, 5] was “Increase”, the “increase of INSULIN+ cell BrdU incorporation” value [3, 5] was 200% and the “serum PDGF-AA levels” value [4] was “Increased”.
